Assay results as given in patent US8642834B2, “Methods for the identification of agents that inhibit mesenchymal-like tumor cells or their formation” (OSI Pharmaceuticals, LLC, priority 2009, dated 2014).
No end group written: not given here.

What was measured:
CFPAC-1 cells [1] = test: Induction of EMT by growth factors and cytokines, E-cadherin and vimentin immunoblotting; assay type: cell-based, human; conditions: CFPAC-1 cells treated 7 days with ligand
Description: The CFPAC1 cell line was cultured in DMEM media (Gibco #11960) supplemented with 10% FBS (Sigma), 2 mM L Glutamine (Gibco), at 37° C., 5% CO2. For 7 day treatments, cells were seeded on tissue culture plastic in complete growth media and allowed to attach overnight at cell densities that would provide approximately 60-80% confluence at end of experiment. Ligand and/or inhibitor was added the following day (Day 0) in complete growth media and incubated at 37° C., 5% CO2. Ligand source and concentrations used are as follows: [1] From R&D systems, SDF-1α (stromal derived factor-1 alpha) at 100 ng/ml, TRANCE (TNF-related activation induced cytokine) at 50 ng/ml, FGF1 (fibroblast growth factor acidic) at 10 ng/ml, FGF2 (fibroblast growth factor basic) at 10 ng/ml, BMP4 (bone morphogenetic protein 4) at 100 ng/ml, BMP7 (bone morphogenetic protein 7) at 100 ng/ml, IGF2 (insulin-like growth factor 2) at 100 ng/ml, OSM (Oncostatin M) at 100 ng/ml, NRG1 (Neuregulin-1) at 50 ng/ml, PDGFaa (Platelet derived growth factor a) at 50 ng/ml, PDGFbb (platelet derive growth factor b) at 30 ng/ml, Ang2 (Angiopoeitin 2) at 400 ng/ml, amphiregulin at 100 ng/ml, HMGB 1 (Human high-mobility group box 1 protein) at 50 ng/ml; [2] From Genscript, LIF (Leukemia inhibitory factor) at 20 ng/ml, GM-CSF (Granulocyte macrophage colony stimulating factor) at 25 ng/ml, M-CSF (Macrophage colony stimulating factor) at 50 ng/ml; [3] From Anaspec, PAR1 (Protease activated receptor 1 agonist) at 100 μM; PAR2 (Protease activated receptor 2 agonist; peptide SLIGKV-NH2, Cat. No. 60217-1) at 100 μM; PAR4 (Protease activated receptor […] agonist; peptide AYPGKF-NH2, Cat. No. 60218-1) at 100 μM; [4] From Peprotech, HGF (Hepatocyte Growth Factor) at 100 ng/ml; IL-31 (Interleukin-31) at 50 ng/ml, IL-33 (Interleukin-33) at 50 ng/ml, IL1-a (Interleukin-1 alpha) at 10 ng/ml, CTGF (Connective tissue growth factor) at 20 ng/ml, WISP1 (Wnt-1 inducible signaling pathway protein) at 20 ng/ml, PTHrP ([…] hormone-related protein) at 50 ng/ml, MCP1 (monocyte chemotactic protein-1) at 50 ng/ml; and [5] from Sigma, Fulvestrant at 1 μM. Fresh medium containing ligand and/or inhibitor was added 3-4 days after initial dose, and at Day 7 cells were harvested for western blot analysis.
Cells were harvested by washing once with PBS, and lysing on ice for 10 minutes with scraping (using a Cell Lifter, Corning Inc. #3008) in ice cold RIPA buffer (Sigma R0278) containing Protease inhibitor (Sigma P8340), Phosphatase inhibitors (Sigma P2850, P5726) and 200 μM Sodium Vanadate. Supernatents were micro-centrifuged at max speed, 4° C. for 10 minutes. Protein content was quantitated using the BCA method (Pierce #23225) and samples were normalized to total protein in Laemli buffer and heated at 100° C. for 10 minutes. SDS PAGE was run using a Bis-Tris gel system (Invitrogen NuPAGE) with MOPS buffer (Invitrogen NP0001), transferred onto nitrocellulose using the iBLOT system (Invitrogen) and blocked in PBS-T (0.1% Tween 20), 5% non-fat milk or BSA in guidance with primary Ab supplier requirements. All primary antibodies were incubated overnight at 4° C. in PBS-T (0.1% Tween 20) in either 5% non-fat milk or BSA, diluted to the following working dilutions: anti E Cadherin (Santa Cruz #sc-21791) 1:500 dilution; anti Vimentin (BD Biosciences #550513) 1:2000 dilution;); anti GAPDH HRP conjugate (Santa Cruz sc-25778) 1:1000 dilution; anti β-Actin (Sigma, A5441) 1:10,000 dilution. […]

CFPAC-1 cells [2] = test: Inhibition of ligand-induced EMT by JAK or MEK inhibitor; assay type: cell-based, human; conditions: JAK inhibitor 0.25 μM
Description: Supernatents were micro-centrifuged at max speed, 4° C. for 10 minutes. […] SDS PAGE was run using a Bis-Tris gel system (Invitrogen NuPAGE) with MOPS buffer (Invitrogen NP0001), transferred onto nitrocellulose using the iBLOT system (Invitrogen) and blocked in PBS-T (0.1% Tween 20), 5% non-fat milk or BSA in guidance with primary Ab supplier requirements. […] Secondary HRP labeled antibodies used were: anti Rabbit IgG HRP (Amersham NA934) 1:5000 dilution; anti Mouse IgG HRP (Sigma A2304) 1:2000 dilution. Membranes were visualized using the Supersignal ELISA Femto Maximum Sensitivity Substrate (Pierce).

pancreatic cancer = conditions: phase III, first-line, in combination with gemcitabine; cited from earlier work
[3] = test system: advanced, treatment-refractory NSCLC; conditions: phase III, monotherapy, patients with advanced; cited from earlier work

Molecule	Induction of EMT (E-cadherin down, vimentin up) (CFPAC-1 cells [1])	also measured
LIF: Leukemia inhibitory factor, Genscript, 20 ng/ml	Partial EMT	
CC(C)(C)c1nc2c3cc[nH]c(=O)c3c3cc(F)ccc3c2[nH]1 [JAK inhibitor]		Block of morphology change (CFPAC-1 cells [2]; CFPAC-1 cells treated with OSM 7 days, light microscopy): blocked the morphology change; Block of EMT process (CFPAC-1 cells [2]; OSM-triggered EMT, 7 days, MEK inhibitor 3 μM): could block EMT process
C#Cc1cccc(Nc2ncnc3cc(OCCOC)c(OCCOC)cc23)c1 [erlotinib, [6,7-bis(2-methoxyethoxy)-4-quinazolin-4-yl]-(3-ethynylphenyl) amine]		Survival (pancreatic cancer): improves survival; Survival, disease progression, lung cancer-related symptoms [3]: significantly prolonged survival, delayed disease progression and delayed worsening of lung cancer-related symptoms
SLIGKV-NH2 (UniProt P55085 37-42, looked up, fragment) [PAR2 agonist SLIGKV-NH2, reference compound]	Partial EMT	
AYPGKF-NH2 [PAR4 agonist AYPGKF-NH2, reference compound]	Partial EMT	
IGF2: insulin-like growth factor 2, R&D systems, 100 ng/ml	Partial EMT	
